Ends that are not written are not given here.
System: β-cell mass
Experiment: INGAP peptide administration to hamsters: extra-islet acinar-associated and total β-cell mass
Format: in vivo
Settings: 250 μg twice daily intra-peritoneal, female Syrian hamsters
Protocol: Female Syrian hamsters, 8 weeks of age, were randomly allocated to receive daily intra-peritoneal injections of INGAP peptide (Ile-Gly-Leu-His-Asp-Pro-Ser-His-Gly-Thr-Leu-Pro-Asn-Gly-Ser) (250 μg twice daily) or an equivalent volume of saline for either 10 (saline n=10, INGAP n=15) or 30 (S n=10, I n=15) days. At the end of the study period, animals were sacrificed by bleeding, and the pancreata excised through a midline laparotomy incision, for morphologic and morphometric analysis.
Samples were embedded in paraffin wax and 4 μm-thick sections were cut. The sections were processed for routine histology and immunostained for insulin, CK19 (1:750, 1:100 respective antibody dilution, Dako Corp., Santa Barbara, Calif.), glucagon, somatostatin and pancreatic polypeptide (1:750 antibody dilution, Biogenex, San Ramon, Calif., USA), using the AB complex method (streptavidin-biotin horseradish peroxidase complex, Dako Corp., Santa Barbara, Calif.), as described previously (22). A rabbit PDX-1 antibody directed against the NH2-terminus of the frog homologue of the protein encoded by the pdx-1 gene was used as the primary antibody (1:750 dilution; a gift from C. Wright, Vanderbilt University). Slides were countered stained with Harris hematoxylin (Sigma, St. Louis, Mo.).
Comparison between groups was done using 1-way ANOVA, 2-way ANOVA with post hoc one-tail t-test or X^2 analysis where appropriate. Data are presented as mean±SEM. Significance was accepted at the 5% level.
To determine β-cell mass (mg/pancreas), each gland was sectioned along its longitudinal axis to avoid any sampling bias due to regional variation in islet distribution and cell composition. Islet cross-sectional areas were traced manually with the aid of an Olympus BX60 microscope connected by video camera to a computer equipped with Image-pro Plus software version 4.0 (23). The total β-cell mass was calculated by a stereological equation, as described previously (22).
β-cell neogenesis and acinar-associated β-cell mass was analysed as described previously […]. Briefly, extra-islet acinar-associated β-cells/cell clusters were defined as insulin positive cells/cell clusters not associated with any other endocrine cells (α, δ, PP), completely surrounded by acinar tissue and a minimum of 100 μm from ductular tissue. The percent β-cell area being extra-islet acinar-associated was determined and multiplied by the weight of the excised organ to determine extra-islet acinar-associated β-cell mass.

IGLHDPSHGTLPNGS [INGAP peptide]
increase in extra-islet acinar-associated β-cell mass versus saline infused controls (10 days of treatment): 180% | increase in total β-cell mass (10 days of treatment): 44% | increase in total β-cell mass (30 days of treatment): 31% | increase in extra-islet acinar-associated β-cell mass versus saline infused controls (30 days of treatment, p<0.05): 200%
